{"source": "patent US20060019270A1", "about": "“Global DNA methylation assessment using bisulfite PCR” (Board of Regents The University of Texas System, priority 2004, published 2006)", "tested_on": "Alu element methylation in Hct116 cells", "assay": "Bisulfite Alu PCR and pyrosequencing, Hct116 cells treated with DAC", "format": "cell-based, human", "description": "Hct116, RKO and SW48, colon cancer cell lines (American Type Culture Collection, Manassas, Va.), were cultured using standard methods. Cells were treated with 5 μM 5-aza-2′deoxycytidine (DAC) for three days prior to being harvested. DNA from cell lines and peripheral blood leukocytes was extracted using phenol-chloroform extraction methods well known to one with skill on the art.\nBisulfite modification of genomic DNA is known in the art (see Clark et. al, 1994). In brief, 1.5 μg prepared 10 mM hydroquinone (Sigma) and 520 μl of 3M Sodium Bisulfite (Sigma) at pH=5.0 were added and mixed. The samples were overlayed with mineral oil to prevent evaporation and incubated at 50° C. for 16 hours. […] Bisulfite treated DNA was stored at −20° C. until ready for use.\nThe Alu element PCR reaction was modified for pyrosequencing based methylation analysis. […] The PCR product was purified and quantitated using the PSQ HS 96 Pyrosequencing System (Pyrosequencing, Inc.; Westborough, Mass.). […]\nBisulfite Alu PCR products could also be analyzed by pyrosequencing allowing for a rapid analysis of multiple CpG sites. […] This method has the advantage of analyzing several methylation sites, is not restricted to restriction enzyme sites, avoids sequencing multiple clones, and allows accurate quantitation of multiple CpG methylation sites in the same reaction. […]"}
{"smiles": "Nc1ncn([C@H]2C[C@H](O)[C@@H](CO)O2)c(=O)n1", "note": "[decitabine, 5-aza-2′-deoxycytidine]", "values": [{"measurement": "Alu methylation after DAC as percent of potential methylation sites", "setting": "pyrosequencing, untreated about 87%", "value": 62, "unit": "%"}, {"measurement": "Alu methylation by pyrosequencing after DAC treatment (average of three CpG sites)", "setting": "untreated 20.2%, SssI maximum 23.2%", "value": 14.5, "unit": "%"}]}
